In PMC13070491, “Single-nucleus transcriptomics, pharmacokinetics, and pharmacodynamics of CDK4/6 and mTOR inhibition in a Phase 0/1 trial of recurrent high-grade glioma” (Neuro-Oncology, 2025):

Test system: GB126, GB239 and GB86 patient-derived cell lines
Test: In vitro single-cell RNA sequencing, analyses across the cell lines (pseudobulk differential gene expression, GSEA, non-cycling cells)
Assay type: cell-based, human
Protocol: Patient-derived glioma stem cell lines (GSCs; GB126, GB86, and GB239) were established from resected GBM tumor tissue. Cell lines were genetically profiled for mutations and copy number aberrations using the IvySeq custom gene panel. […] GB239 was derived from a tumor sample included in this Phase 0 trial (tumor sample: 100-0039). All human GSCs were cultured as described previously.[12]
Following the fifth day of drug exposure, cells were harvested, cryopreserved to be processed at a later point, or immediately processed for single-cell RNA sequencing (10x Genomics, 3’ version 3). The single-cell RNA sequencing data were then processed via cellranger count and Seurat. Briefly, cells were filtered out based on the following criteria: minimum number of genes detected >500 and <10 000 with a maximum percentage of mitochondrial genes set to 10%. Statistical assessment was made between the malignant proportions of each cell state using a 2-sided paired t-test.
Descriptive statistics of the clinical data are included in Table 1. Comparisons between groups were conducted using a 2-sided or paired 2-sided t-test, where indicated. P < .05 was considered significant. Multiple hypothesis test corrections (ie, false discovery rate correction) were applied for snRNAseq pseudobulk differential expression analysis.

CN(C)C(=O)c1cc2cnc(Nc3ccc(N4CCNCC4)cn3)nc2n1C1CCCC1 [Ribociclib, ribociclib]
CDK4 gene expression following ribociclib treatment (5 days vs DMSO, single-cell RNAseq): reduced but remained high | NPC-like proportion, cells not actively cycling (ribociclib vs DMSO 5 days, paired t-test P = 1.4E-06): decrease | AC-like proportion, cells not actively cycling (ribociclib vs DMSO 5 days, paired t-test P = 2.6E-03): increase
